For one assay, the system named is male Slc:ICR mice. The assay can be described thus: Action against pain-related behavior and micturition cycle in mice with cyclophosphamide (CP)-induced acute cystitis. In kind it is in vivo. Conditions: Mus musculus, iv, 0.25 h, CP 300 mg/kg i.p., 15 minutes observation; for inhibition in vivo at 3 mg/kg: test substance 3 mg/kg intravenously 3 hours after CP; for inhibition in vivo at 1 mg/kg: test substance 1 mg/kg intravenously 3 hours after CP. As to the method: An action of a test substance against visceral pain and frequent urination associated with cystitis, which was induced by intraperitoneal administration (20 mL/kg) of CP (300 mg/kg) to 4 to 5-week-old male Slc:ICR mice (available from Japan SLC, Inc.), was investigated. This experiment was performed according to a method described in European Journal of Pharmacology, 676 (2012), pp. 75-80.
Three hours after the administration of CP, a test substance (1 mg/kg or 3 mg/kg) was intravenously administered, and observation by visual inspection and video recording were performed for 15 minutes immediately thereafter. In the observation by visual inspection, four pain-related behaviors (eye opening, rounded back, leg dragging, and behavior during urination) were scored, each rated on a scale of 0-10, according to the following criteria.
Eye opening (normal: 0 point, sometimes closed or half-open eyes: 5 points, completely closed: 10 points)
Rounded back (normal: 0 point, sometimes crouched: 5 points, crouched at almost all times: 10 points)
Leg dragging (normal: 0 point, leg dragging: 10 points)
Behavior during urination (normal: 0 point, shaking hip in micturition: 10 points)
In addition, the video was played back, and the frequency of licking behavior around the abdomen as a pain-related behavior was scored, rated on a scale of 0-10, according to the following criteria.
Licking behavior around the abdomen (0 to 3 times: 0 point, 4 times to 10 times: 5 points, 11 times or more: 10 points)
Furthermore, the video was played back, and the frequency of urination (urination marks) on a filter paper was counted and taken as an index for micturition cycle.
An average value of the pain-related behavior score of each group (total score of the five items: 50 points at maximum) and an average value of the frequency of urination (urination marks) on the filter paper were determined.
The strength of an analgesic action of the test substance against the CP-induced visceral pain was evaluated in terms of percent inhibition (%) of pain-related behavior score which is calculated as {(A−B)/A×100}, wherein A is an average value of the pain-related behavior score of a medium-administered group, and B is an average value of the pain-related behavior score of a test substance-administered group.
In addition, the strength of a frequent urination inhibitory action of the test substance against the CP-induced frequent urination was evaluated in terms of percent inhibition (%) of the frequency of urination which is calculated as {(C−D)/C×100}, wherein C is an average value of the frequency of urination of a medium-administered group, and D is an average value of the frequency of urination of a test substance-administered group.

In a further assay the target is T1, human mGluR5 (Homo sapiens, UniProt P41594).
T1 construct: expressed in transfected cells
T1 sequence (P41594 21-1212): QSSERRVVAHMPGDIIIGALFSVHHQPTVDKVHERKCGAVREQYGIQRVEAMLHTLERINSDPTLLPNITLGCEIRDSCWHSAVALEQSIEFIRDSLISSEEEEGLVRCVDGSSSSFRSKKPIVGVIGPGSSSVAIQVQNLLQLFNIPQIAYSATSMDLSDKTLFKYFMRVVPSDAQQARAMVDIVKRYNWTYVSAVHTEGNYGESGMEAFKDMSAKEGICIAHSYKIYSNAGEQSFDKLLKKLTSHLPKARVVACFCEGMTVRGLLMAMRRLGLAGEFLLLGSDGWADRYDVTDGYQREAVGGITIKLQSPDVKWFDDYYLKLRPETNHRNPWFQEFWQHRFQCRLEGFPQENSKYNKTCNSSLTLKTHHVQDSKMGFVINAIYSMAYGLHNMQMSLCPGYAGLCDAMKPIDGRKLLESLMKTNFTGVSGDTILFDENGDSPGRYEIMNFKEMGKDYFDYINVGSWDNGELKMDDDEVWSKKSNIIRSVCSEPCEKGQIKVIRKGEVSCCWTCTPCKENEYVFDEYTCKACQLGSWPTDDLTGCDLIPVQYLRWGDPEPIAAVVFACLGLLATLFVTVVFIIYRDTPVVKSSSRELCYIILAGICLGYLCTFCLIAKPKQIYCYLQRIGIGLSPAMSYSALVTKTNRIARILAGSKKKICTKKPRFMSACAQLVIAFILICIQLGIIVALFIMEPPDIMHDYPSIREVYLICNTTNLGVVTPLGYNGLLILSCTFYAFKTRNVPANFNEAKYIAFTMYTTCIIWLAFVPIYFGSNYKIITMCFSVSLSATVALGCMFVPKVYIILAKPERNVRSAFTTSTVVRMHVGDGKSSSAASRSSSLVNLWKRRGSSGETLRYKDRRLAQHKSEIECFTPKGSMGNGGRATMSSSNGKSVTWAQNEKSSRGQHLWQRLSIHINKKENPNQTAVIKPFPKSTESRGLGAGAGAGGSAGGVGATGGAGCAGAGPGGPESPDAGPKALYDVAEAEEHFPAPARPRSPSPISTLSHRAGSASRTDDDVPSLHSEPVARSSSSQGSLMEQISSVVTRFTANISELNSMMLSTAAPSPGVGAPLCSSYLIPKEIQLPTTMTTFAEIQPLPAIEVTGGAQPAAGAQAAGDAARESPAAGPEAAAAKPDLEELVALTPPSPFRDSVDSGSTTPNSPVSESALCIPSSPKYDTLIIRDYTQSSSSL
Nature of the assay: Experiment for receptor function of mGluR5 (Ca2+-dependent fluorescence, FLIPR, CHO-K1 cells stably expressing human mGluR5). In kind it is cell-based. Conditions: L-glutamic acid 10 μM, Fluo-4 fluorescence. The procedure, abridged:
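Fluo-4-loaded CHO-K1 cells pre-incubated 2 min with test substance, then stimulated with L-glutamic acid (final 10 μM) in HBSS, pH 7.4. FLIPR Ca2+ fluorescence normalized to glutamate alone (100%) and glutamate with 10 μM MPEP (0%); IC50 estimated by logistic fit.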

Setting [1] is: read-out: Percent inhibition of pain-related behavior score (%).
Where [2] appears, read: read-out: Percent inhibition of the frequency of urination (%).

Counter-ions that a name gives are not always drawn. Like-named read-outs stand apart in the source and are kept apart here.

The IC50 is the midpoint of a concentration-inhibition curve. Read a high IC50 as a need for much substance.

As to `Fc1ccc(F)c(COc2cc(-c3cncnc3)c3c(n2)CCCC3)n1` [Example 148, 2-[(3,6-Difluoropyridin-2-yl)methoxy]-4-(pyrimidin-5-yl)-5,6,7,8-tetrahydroquinoline], the inhibition in vivo at 3 mg/kg is 45.7% in the assay with male Slc:ICR mice (setting [1]) and 31.5% with male Slc:ICR mice (setting [2]). For the same compound, the 50% inhibitory concentration (IC50) against human mGluR5 came out at 0.022 µM.

Regarding `Cc1cccc(COc2cc(-c3cnc(C)nc3)c3c(n2)CCC3)n1` [Example 45, 2-[(6-Methylpyridin-2-yl)methoxy]-4-(2-methylpyrimidin-5-yl)-6,7-dihydro-5H-cyclopenta[b]pyridine hydrochloride], the figures for the inhibition in vivo at 3 mg/kg in the assay with male Slc:ICR mice (setting [1]) and in the assay on male Slc:ICR mice (setting [2]) were 34.1% and 33.8%, respectively.

`Fc1ccc(F)c(COc2cc(-c3cncnc3)c3c(n2)CCC3)n1` [Example 255, 2-[(3,6-Difluoropyridin-2-yl)methoxy]-4-(pyrimidin-5-yl)-6,7-dihydro-5H-cyclopenta[b]pyridine]: the inhibition in vivo at 3 mg/kg with male Slc:ICR mice (setting [1]) came to 31%; in the assay on male Slc:ICR mice (setting [2]), 26.4%.

In the case of `Cc1ncc(-c2cc(OCc3cccc(C#N)n3)nc3c2CCCC3)cn1` [Example 183, 6-({[4-(2-Methylpyrimidin-5-yl)-5,6,7,8-tetrahydroquinolin-2-yl]oxy}methyl)pyridine-2-carbonitrile], the inhibition in vivo at 1 mg/kg came out at 37% in the assay with male Slc:ICR mice (setting [1]) and 22.7% in the assay on male Slc:ICR mice (setting [2]). The compound further yielded an IC50 on human mGluR5 of 0.148 µM.

Regarding `OCc1cncc(-c2cc(OCc3ncccc3F)nc3c2CCCC3)n1` [Example 217, (6-{2-[(3-Fluoropyridin-2-yl)methoxy]-5,6,7,8-tetrahydroquinolin-4-yl}pyrazin-2-yl)methanol], the results for the inhibition in vivo at 3 mg/kg in the assay on male Slc:ICR mice (setting [1]) and with male Slc:ICR mice (setting [2]) were 38.3% and 40.4%, respectively.

On to `Cc1ncc(-c2cc(OCc3nc(F)ccc3F)nc3c2CCC3)cn1` [Example 43, 2-[(3,6-Difluoropyridin-2-yl)methoxy]-4-(2-methylpyrimidin-5-yl)-6,7-dihydro-5H-cyclopenta[b]pyridine], for which the inhibition in vivo at 3 mg/kg with male Slc:ICR mice (setting [1]) worked out at 31%; with male Slc:ICR mice (setting [2]), 41.9%.

`Cc1cccc(COc2cc(-c3cnc(C)nc3)c3c(n2)CCCC3)n1` [Example 182, 2-[(6-Methylpyridin-2-yl)methoxy]-4-(2-methylpyrimidin-5-yl)-5,6,7,8-tetrahydroquinoline hydrochloride]: the inhibition in vivo at 3 mg/kg with male Slc:ICR mice (setting [1]) worked out at 26%; in the assay with male Slc:ICR mice (setting [2]) it was 43.2%. Besides, the midpoint of inhibition against human mGluR5, the IC50, lay at 0.123 µM.

`Fc1cccnc1COc1cc(-c2cncnc2)c2c(n1)CCCC2` [Example 147, 2-[(3-Fluoropyridin-2-yl)methoxy]-4-(pyrimidin-5-yl)-5,6,7,8-tetrahydroquinoline]: the inhibition in vivo at 3 mg/kg in the assay on male Slc:ICR mice (setting [1]) is 38.8%; in the assay on male Slc:ICR mice (setting [2]), 21.1%. The compound further displayed an IC50 on human mGluR5 of 0.0197 µM.

At human mGluR5, `CNc1cncc(-c2cc(OCc3ccccn3)nc3c2CCCC3)c1` [Example 125, N-Methyl-5-[2-(pyridin-2-ylmethoxy)-5,6,7,8-tetrahydroquinolin-4-yl]pyridin-3-amine] yielded an IC50 of 0.0456 µM.

For the compound `c1ccc(COc2cc(-c3cccnc3)c3c(n2)CCCCC3)nc1` [Example 232, 4-(Pyridin-3-yl)-2-(pyridin-2-ylmethoxy)-6,7,8,9-tetrahydro-5H-cyclohepta[b]pyridine], the IC50 against human mGluR5 was found to be 0.0289 µM.

Take `Cc1cc(COc2cc(-c3cnc(C)nc3)c3c(n2)CCC3)ccn1` [Example 262, 2-[(2-Methylpyridin-4-yl)methoxy]-4-(2-methylpyrimidin-5-yl)-6,7-dihydro-5H-cyclopenta[b]pyridine]: half-maximal inhibition on human mGluR5 (IC50) required 0.082 µM.

At human mGluR5, `Fc1cncc(-c2cc(OCc3ccccn3)nc3c2CCCC3)c1` [Example 107, 4-(5-Fluoropyridin-3-yl)-2-(pyridin-2-ylmethoxy)-5,6,7,8-tetrahydroquinoline hydrochloride] came in with an IC50 of 0.0812 µM.

Take `OCc1cncc(-c2cc(OCc3ccccn3)nc3c2CCCC3)n1` [Example 204, {6-[2-(Pyridin-2-ylmethoxy)-5,6,7,8-tetrahydroquinolin-4-yl]pyrazin-2-yl}methanol]: 0.23 µM corresponded to half-maximal inhibition at human mGluR5 (IC50).

The compound `Cc1cccc(COc2cc(-c3cncnc3)c3c(n2)CCC3)n1` [Example 28, 2-[(6-Methylpyridin-2-yl)methoxy]-4-(pyrimidin-5-yl)-6,7-dihydro-5H-cyclopenta[b]pyridine] returned a 50% inhibitory concentration (IC50) on human mGluR5 of 0.104 µM.

As to `Fc1ccc(COc2cc(-c3cncnc3)c3c(n2)CCCC3)nc1` [Example 145, 2-[(5-Fluoropyridin-2-yl)methoxy]-4-(pyrimidin-5-yl)-5,6,7,8-tetrahydroquinoline], at human mGluR5, half-maximal inhibition (IC50) was put at 0.074 µM.

In the case of `Cc1csc(COc2cc(-c3cccnc3)c3c(n2)CCCC3)n1` [Example 95, 2-[(4-Methyl-1,3-thiazol-2-yl)methoxy]-4-(pyridin-3-yl)-5,6,7,8-tetrahydroquinoline], it took 0.042 µM to reach half-maximal inhibition against human mGluR5 (IC50).

The compound `Fc1ccc(COc2cc(-c3cccnc3F)c3c(n2)CCCC3)nc1` [Example 138, 4-(2-Fluoropyridin-3-yl)-2-[(5-fluoropyridin-2-yl)methoxy]-5,6,7,8-tetrahydroquinoline hydrochloride] registered an IC50 on human mGluR5 of 0.095 µM.

In the case of `Fc1nccnc1-c1cc(OCc2ccccn2)nc2c1CCCC2` [Example 200, 4-(3-Fluoropyrazin-2-yl)-2-(pyridin-2-ylmethoxy)-5,6,7,8-tetrahydroquinoline hydrochloride], the IC50 at human mGluR5 came to 0.144 µM.

As to `OCc1cncc(-c2cc(OCc3ccc(F)cn3)nc3c2CCC3)n1` [Example 269, (6-{2-[(5-Fluoropyridin-2-yl)methoxy]-6,7-dihydro-5H-cyclopenta[b]pyridin-4-yl}pyrazin-2-yl)methanol], on human mGluR5, the IC50 was 0.067 µM.

The compound `N#Cc1ccc(COc2cc(-c3cncc(CO)c3)c3c(n2)CCCC3)nc1` [Example 276, 6-[({4-[5-(Hydroxymethyl)pyridin-3-yl]-5,6,7,8-tetrahydroquinolin-2-yl}oxy)methyl]pyridine-3-carbonitrile] yielded an IC50 at human mGluR5 of 0.028 µM.

As to `Nc1cccc(COc2cc(-c3cncnc3)c3c(n2)CCCC3)n1` [Example 157, 6-({[4-(Pyrimidin-5-yl)-5,6,7,8-tetrahydroquinolin-2-yl]oxy}methyl)pyridin-2-amine], the IC50 on human mGluR5 was 0.333 µM.

Consider `N#Cc1ncc(-c2cc(OCc3ncccc3F)nc3c2CCC3)cn1` [Example 50, 5-{2-[(3-Fluoropyridin-2-yl)methoxy]-6,7-dihydro-5H-cyclopenta[b]pyridin-4-yl}pyrimidine-2-carbonitrile], for which the midpoint of inhibition against human mGluR5, the IC50, lay at 0.176 µM.

On human mGluR5, `N#Cc1ccc(COc2cc(-c3cncc(F)c3)c3c(n2)CCC3)nc1` [Example 250, 6-({[4-(5-Fluoropyridin-3-yl)-6,7-dihydro-5H-cyclopenta[b]pyridin-2-yl]oxy}methyl)pyridine-3-carbonitrile] returned an IC50 of 0.0106 µM.

As to `Fc1cncc(-c2cc(OCc3ccccn3)nc3c2CCCC3)n1` [Example 199, 4-(6-Fluoropyrazin-2-yl)-2-(pyridin-2-ylmethoxy)-5,6,7,8-tetrahydroquinoline hydrochloride], at human mGluR5, the IC50 was determined as 0.0245 µM.

`CC(=O)c1cncc(-c2cc(OCc3ccccn3)nc3c2CCCC3)c1` [Example 115, 1-{5-[2-(Pyridin-2-ylmethoxy)-5,6,7,8-tetrahydroquinolin-4-yl]pyridin-3-yl}ethanone dihydrochloride]: at human mGluR5, inhibition was half-maximal at 0.0987 µM (IC50).

Compound `N#Cc1cccc(COc2cc(-c3cncc(CO)n3)c3c(n2)CCC3)c1` [Example 270, 3-[({4-[6-(Hydroxymethyl)pyrazin-2-yl]-6,7-dihydro-5H-cyclopenta[b]pyridin-2-yl}oxy)methyl]benzonitrile] had an IC50 on human mGluR5 of 0.186 µM.

The record behind these values is patent publication US20150225404A1, “PYRIDINE DERIVATIVE AND MEDICINE” (NIPPON SHINYAKU CO., LTD., priority 2012, published 2015).
